These results are taken from US20090170878A1, “MACROCYCLIC COMPOUNDS USEFUL AS BACE INHIBITORS” (priority 2006, published 2009).

In general, IC50 refers to the midpoint of a concentration-inhibition curve.

In this test the target is T1, Human BACE (Homo sapiens, UniProt P56817).
T1 construct: Recombinant BACE (extracellular domain, expressed in baculovirus and purified using standard methods); made in house; host or cells: baculovirus expression system (insect cells)
Nature of the test: Test 1: Inhibition of Human BACE. Conditions: recombinant BACE extracellular domain, fluorescence-quenched APP-derived peptide substrate, pH 4.5. The format is biochemical. On the procedure: Test 1: Inhibition of Human BACE
Recombinant BACE (extracellular domain, expressed in baculovirus and purified using standard methods) at 0.1 to 10 nM concentrations is incubated with the test compound at various concentrations for 1 hour at room temperature in 10 to 100 mM acetate buffer, pH 4.5, containing 0.1% CHAPS. Synthetic fluorescence-quenched peptide substrate, derived from the sequence of APP and containing a suitable fluorophore-quencher pair, is added to a final concentration of 1 to 5 μM, and the increase in fluorescence is recorded at a suitable excitation/emission wavelength in a microplate spectro-fluorimeter for 5 to 30 minutes in 1-minute intervals. IC50 values are calculated from percentage of inhibition of BACE-activity as a function of the test compound concentration.

T1 sequence (P56817 46-457 limits assumed): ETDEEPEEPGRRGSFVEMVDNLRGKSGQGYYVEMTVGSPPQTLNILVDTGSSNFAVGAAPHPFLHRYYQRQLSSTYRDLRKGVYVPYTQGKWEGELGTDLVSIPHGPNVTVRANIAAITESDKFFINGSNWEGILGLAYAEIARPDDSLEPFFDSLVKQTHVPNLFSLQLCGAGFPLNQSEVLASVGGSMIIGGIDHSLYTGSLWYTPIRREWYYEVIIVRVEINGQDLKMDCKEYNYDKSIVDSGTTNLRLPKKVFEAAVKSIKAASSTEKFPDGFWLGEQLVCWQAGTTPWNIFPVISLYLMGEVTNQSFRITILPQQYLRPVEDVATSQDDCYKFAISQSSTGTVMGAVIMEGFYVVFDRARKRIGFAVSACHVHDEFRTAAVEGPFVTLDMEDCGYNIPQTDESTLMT

With `CC(C)c1cccc(C2(NC[C@@H](O)[C@@H]3C[C@H](C)CCCCCCCCC(=O)N(C)[C@@H](C)C(=O)N3)CC2)c1` [Example 1, (3S,14R,16S)-16-{(R)-1-Hydroxy-2-[1-(3-isopropyl-phenyl)-cyclopropylamino]-ethyl}-3,4,14-trimethyl-1,4-diaza-cyclohexadecane-2,5-dione], the IC50 was 30 nM.
